Source: article PMC4821612, “Multispecific Organic Cation Transporter 1 (OCT1) from Bos taurus Has High Affinity and Slow Binding Kinetics towards Prostaglandin E2” (PLoS ONE, 2016)

Key:
[1] = molecular target: T1, Organic cation transporter 1 (btOCT1) (Bos taurus, UniProt A7MBE0, N107Q/N71Q/N91Q); experiment: SPR kinetics, purified btOCT1 over streptavidin-immobilised PGE2-PEG11-Biotin (PEG11-Biotin control); steady-state k […]; assay type: binding
T1 construct: gene SLC22A1; purified tag-free btOCT1 triple N-glycosylation mutant (NP_001094568.1), expressed in Pichia pastoris
T1 sequence (A7MBE0 1-563 N71Q/N91Q/N107Q): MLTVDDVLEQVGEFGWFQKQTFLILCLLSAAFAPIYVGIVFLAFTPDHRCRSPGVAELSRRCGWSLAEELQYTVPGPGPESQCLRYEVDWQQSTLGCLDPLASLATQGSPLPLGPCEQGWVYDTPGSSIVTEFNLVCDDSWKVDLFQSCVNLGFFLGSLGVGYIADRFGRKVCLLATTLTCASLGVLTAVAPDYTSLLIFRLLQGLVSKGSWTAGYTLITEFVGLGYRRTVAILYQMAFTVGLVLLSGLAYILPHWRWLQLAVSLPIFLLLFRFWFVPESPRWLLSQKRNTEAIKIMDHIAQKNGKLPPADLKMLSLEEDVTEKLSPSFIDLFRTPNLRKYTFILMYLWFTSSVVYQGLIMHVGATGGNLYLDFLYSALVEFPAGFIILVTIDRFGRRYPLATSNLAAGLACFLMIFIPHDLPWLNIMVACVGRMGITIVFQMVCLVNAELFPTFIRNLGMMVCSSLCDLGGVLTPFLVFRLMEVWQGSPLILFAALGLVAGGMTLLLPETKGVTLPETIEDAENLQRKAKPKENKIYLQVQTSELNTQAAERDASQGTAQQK

[2] = molecular target: T2, Organic cation transporter 1 (btOCT1) (Bos taurus, UniProt A7MBE0, N71Q/N91Q/N107Q); experiment: fluorescence polarization with purified btOCT1; rhodamine […] alone does not bind; assay type: binding
T2 construct: gene SLC22A1; purified tag-free btOCT1 triple N-glycosylation mutant (NP_001094568.1), expressed in Pichia pastoris
T2 sequence (A7MBE0 1-563 N71Q/N91Q/N107Q): T1 sequence (A7MBE0 1-563 N71Q/N91Q/N107Q)

Molecule	Kd [1] [nM]	Kd [2] [nM]
CCCCC[C@H](O)/C=C/[C@H]1[C@H](O)CC(=O)[C@@H]1C/C=C\CCCC(=O)O [Prostaglandin E2]	~100	–
PGE2-Rhodamine	–	540
